PMC8429728, “TNK1 is a ubiquitin-binding and 14-3-3-regulated kinase that can be targeted to block tumor growth” (Nature Communications, 2021)
Where two headings read alike, the source gives them in different places.

Assays:
Experiment in all cases: biochemical
Design in all cases: Reaction Biology 371-kinase panel at Km ATP, per cent enzyme activity relative to DMSO, single dose in duplicate
NIM1 = target: T1, NIM1 (Homo sapiens, UniProt Q8IY84); details: duplicate measurements, Km ATP
T1 construct: gene NIM1K
Summary of the method: (§1)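 Activity of each kinase, normalised to DMSO-treated controls, served as the read-out. The inhibitor was tested at 300 nM against 371 kinases in vitro. Curves fitted by variable-slope sigmoidal dose-response, constrained to a bottom of 0, gave IC50.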

TESK2 = TESK2 (Homo sapiens, UniProt Q96S53); details: duplicate measurements, Km ATP
Summary of the method: as §1

JNK1 = target: T2, JNK1 (Homo sapiens, UniProt P45983); details: duplicate measurements, Km ATP; read-out: % Enzyme Activity (relative to DMSO controls) / TP-0005801 (0.3µM) / Data 1
T2 construct: gene MAPK8
Summary of the method: as §1

CDK2/cyclin A1 = CDK2/cyclin A1 (Homo sapiens, UniProt P24941); details: duplicate measurements, Km ATP
Summary of the method: as §1

ASK1/MAP3K5 = ASK1/MAP3K5 (Homo sapiens, UniProt Q99683); details: duplicate measurements, Km ATP
Summary of the method: as §1

EGFR = EGFR (Homo sapiens, UniProt P00533); details: duplicate measurements, Km ATP
Summary of the method: as §1

CAMK1g = CAMK1g (Homo sapiens, UniProt Q96NX5); details: duplicate measurements, Km ATP
Summary of the method: as §1

CAMK4 = CAMK4 (Homo sapiens, UniProt Q16566); details: duplicate measurements, Km ATP
Summary of the method: as §1

ERK5/MAPK7 = ERK5/MAPK7 (Homo sapiens, UniProt Q13164); details: duplicate measurements, Km ATP
Summary of the method: as §1

SGK2 = SGK2 (Homo sapiens, UniProt Q9HBY8); details: duplicate measurements, Km ATP
Summary of the method: as §1

WNK2 = WNK2 (Homo sapiens, UniProt Q9Y3S1); details: duplicate measurements, Km ATP
Summary of the method: as §1

MAPKAPK5/PRAK = MAPKAPK5/PRAK (Homo sapiens, UniProt Q8IW41); details: duplicate measurements, Km ATP
Summary of the method: as §1

ULK2 = ULK2 (Homo sapiens, UniProt Q8IYT8); details: duplicate measurements, Km ATP
Summary of the method: as §1

Aurora B = target: T3, Aurora B (Homo sapiens, UniProt Q96GD4); details: duplicate measurements, Km ATP
T3 construct: gene AURKB
Summary of the method: as §1

MLK4 = target: T4, MLK4 (Homo sapiens, UniProt Q5TCX8); details: duplicate measurements, Km ATP; read-out: % Enzyme Activity (relative to DMSO controls) / TP-0005801 (0.3µM) / Data 1
T4 construct: gene MAP3K21
Summary of the method: as §1

ROS/ROS1 = ROS/ROS1 (Homo sapiens, UniProt P08922); details: duplicate measurements, Km ATP
Summary of the method: as §1

PKCtheta = target: T5, PKCtheta (Homo sapiens, UniProt Q04759); details: duplicate measurements, Km ATP
T5 construct: gene PRKCQ
Summary of the method: as §1

GRK6 = GRK6 (Homo sapiens, UniProt P43250); details: duplicate measurements, Km ATP
Summary of the method: as §1

CHK1 = target: T6, CHK1 (Homo sapiens, UniProt O14757); details: duplicate measurements, Km ATP
T6 construct: gene CHEK1
Summary of the method: as §1

SGK1 = SGK1 (Homo sapiens, UniProt O00141); details: duplicate measurements, Km ATP
Summary of the method: as §1

[1] = read-out: % Enzyme Activity (relative to DMSO controls) / TP-0005801 (0.3µM) / Data 1
[2] = read-out: % Enzyme Activity (relative to DMSO controls) / TP-0005801 (0.3µM) / Data 2

Sequence of SGK2 (Q9HBY8 whole entry): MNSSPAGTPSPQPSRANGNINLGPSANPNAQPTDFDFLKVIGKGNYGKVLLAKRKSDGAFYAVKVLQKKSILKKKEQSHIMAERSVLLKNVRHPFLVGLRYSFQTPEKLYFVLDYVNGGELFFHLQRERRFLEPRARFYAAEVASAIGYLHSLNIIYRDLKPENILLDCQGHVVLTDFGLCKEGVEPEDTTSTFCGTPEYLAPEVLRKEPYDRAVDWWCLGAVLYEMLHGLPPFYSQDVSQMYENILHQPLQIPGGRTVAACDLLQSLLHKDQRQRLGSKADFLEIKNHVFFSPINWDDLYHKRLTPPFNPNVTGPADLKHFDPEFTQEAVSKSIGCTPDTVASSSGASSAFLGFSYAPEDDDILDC
Sequence of SGK1 (O00141 whole entry): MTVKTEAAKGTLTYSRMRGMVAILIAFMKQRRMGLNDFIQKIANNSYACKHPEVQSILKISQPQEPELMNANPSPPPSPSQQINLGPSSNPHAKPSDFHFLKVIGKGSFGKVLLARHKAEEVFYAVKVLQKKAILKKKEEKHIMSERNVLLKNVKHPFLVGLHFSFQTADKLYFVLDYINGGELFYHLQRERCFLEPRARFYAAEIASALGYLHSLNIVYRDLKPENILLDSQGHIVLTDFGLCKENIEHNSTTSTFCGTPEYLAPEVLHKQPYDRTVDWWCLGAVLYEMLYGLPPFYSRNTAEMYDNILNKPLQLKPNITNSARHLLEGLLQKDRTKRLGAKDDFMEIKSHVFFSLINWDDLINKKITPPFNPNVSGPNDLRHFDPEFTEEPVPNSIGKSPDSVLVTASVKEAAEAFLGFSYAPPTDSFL
Sequence of WNK2 (Q9Y3S1 whole entry): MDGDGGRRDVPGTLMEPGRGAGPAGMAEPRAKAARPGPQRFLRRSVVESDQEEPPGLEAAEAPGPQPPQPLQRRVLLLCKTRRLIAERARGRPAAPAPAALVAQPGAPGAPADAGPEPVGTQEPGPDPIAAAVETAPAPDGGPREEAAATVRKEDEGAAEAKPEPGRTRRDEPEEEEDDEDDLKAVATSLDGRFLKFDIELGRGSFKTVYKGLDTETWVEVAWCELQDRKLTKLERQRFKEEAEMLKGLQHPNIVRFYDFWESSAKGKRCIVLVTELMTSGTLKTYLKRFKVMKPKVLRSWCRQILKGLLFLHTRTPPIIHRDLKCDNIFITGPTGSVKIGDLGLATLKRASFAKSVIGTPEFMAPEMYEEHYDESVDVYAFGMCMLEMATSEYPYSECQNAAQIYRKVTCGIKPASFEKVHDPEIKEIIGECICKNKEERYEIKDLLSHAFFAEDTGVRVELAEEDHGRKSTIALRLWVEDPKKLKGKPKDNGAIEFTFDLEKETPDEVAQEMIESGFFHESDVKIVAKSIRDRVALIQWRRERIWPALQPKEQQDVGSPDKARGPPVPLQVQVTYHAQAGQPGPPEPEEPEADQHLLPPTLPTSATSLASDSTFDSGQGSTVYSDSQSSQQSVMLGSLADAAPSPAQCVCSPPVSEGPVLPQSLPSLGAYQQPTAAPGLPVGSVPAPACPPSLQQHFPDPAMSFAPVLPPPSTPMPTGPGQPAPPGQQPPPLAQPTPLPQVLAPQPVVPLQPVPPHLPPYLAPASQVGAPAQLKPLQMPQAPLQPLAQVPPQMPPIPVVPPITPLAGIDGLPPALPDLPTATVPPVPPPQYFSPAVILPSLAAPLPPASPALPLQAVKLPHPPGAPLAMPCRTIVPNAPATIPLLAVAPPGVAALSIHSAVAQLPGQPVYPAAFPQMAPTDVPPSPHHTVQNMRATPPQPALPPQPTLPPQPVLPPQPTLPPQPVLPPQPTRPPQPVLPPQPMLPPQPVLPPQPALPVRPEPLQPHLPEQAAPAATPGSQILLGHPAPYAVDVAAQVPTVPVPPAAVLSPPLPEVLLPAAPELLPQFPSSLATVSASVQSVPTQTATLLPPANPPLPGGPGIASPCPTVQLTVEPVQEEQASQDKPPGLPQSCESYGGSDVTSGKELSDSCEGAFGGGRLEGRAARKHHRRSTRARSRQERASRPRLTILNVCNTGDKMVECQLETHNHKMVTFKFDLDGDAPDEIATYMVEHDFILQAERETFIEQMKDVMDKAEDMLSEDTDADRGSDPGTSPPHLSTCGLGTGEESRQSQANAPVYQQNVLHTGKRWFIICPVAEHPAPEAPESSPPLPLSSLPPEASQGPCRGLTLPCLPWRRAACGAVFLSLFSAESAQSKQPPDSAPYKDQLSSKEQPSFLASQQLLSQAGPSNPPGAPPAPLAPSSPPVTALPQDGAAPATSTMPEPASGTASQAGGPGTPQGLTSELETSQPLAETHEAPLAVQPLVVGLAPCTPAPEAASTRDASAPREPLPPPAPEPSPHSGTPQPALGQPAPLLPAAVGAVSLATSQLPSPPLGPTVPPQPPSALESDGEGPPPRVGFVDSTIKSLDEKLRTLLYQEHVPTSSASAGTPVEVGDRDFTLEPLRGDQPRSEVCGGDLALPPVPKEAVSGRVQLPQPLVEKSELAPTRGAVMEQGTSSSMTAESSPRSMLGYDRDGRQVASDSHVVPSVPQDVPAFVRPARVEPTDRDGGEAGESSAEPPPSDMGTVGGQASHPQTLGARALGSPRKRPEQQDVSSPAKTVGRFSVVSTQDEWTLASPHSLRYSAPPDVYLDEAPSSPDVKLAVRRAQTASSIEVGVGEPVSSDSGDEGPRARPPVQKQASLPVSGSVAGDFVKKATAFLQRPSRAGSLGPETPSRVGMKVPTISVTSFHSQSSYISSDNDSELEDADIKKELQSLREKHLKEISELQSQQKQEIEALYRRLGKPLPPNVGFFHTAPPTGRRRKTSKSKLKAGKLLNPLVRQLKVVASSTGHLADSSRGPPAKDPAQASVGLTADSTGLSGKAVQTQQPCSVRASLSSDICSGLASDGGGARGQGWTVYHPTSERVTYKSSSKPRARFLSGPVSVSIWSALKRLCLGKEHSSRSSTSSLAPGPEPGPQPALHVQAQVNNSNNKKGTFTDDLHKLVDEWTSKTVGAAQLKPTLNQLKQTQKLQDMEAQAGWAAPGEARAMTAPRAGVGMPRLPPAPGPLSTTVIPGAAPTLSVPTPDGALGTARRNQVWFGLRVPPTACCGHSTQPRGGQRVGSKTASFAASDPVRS
Sequence of EGFR (P00533 whole entry): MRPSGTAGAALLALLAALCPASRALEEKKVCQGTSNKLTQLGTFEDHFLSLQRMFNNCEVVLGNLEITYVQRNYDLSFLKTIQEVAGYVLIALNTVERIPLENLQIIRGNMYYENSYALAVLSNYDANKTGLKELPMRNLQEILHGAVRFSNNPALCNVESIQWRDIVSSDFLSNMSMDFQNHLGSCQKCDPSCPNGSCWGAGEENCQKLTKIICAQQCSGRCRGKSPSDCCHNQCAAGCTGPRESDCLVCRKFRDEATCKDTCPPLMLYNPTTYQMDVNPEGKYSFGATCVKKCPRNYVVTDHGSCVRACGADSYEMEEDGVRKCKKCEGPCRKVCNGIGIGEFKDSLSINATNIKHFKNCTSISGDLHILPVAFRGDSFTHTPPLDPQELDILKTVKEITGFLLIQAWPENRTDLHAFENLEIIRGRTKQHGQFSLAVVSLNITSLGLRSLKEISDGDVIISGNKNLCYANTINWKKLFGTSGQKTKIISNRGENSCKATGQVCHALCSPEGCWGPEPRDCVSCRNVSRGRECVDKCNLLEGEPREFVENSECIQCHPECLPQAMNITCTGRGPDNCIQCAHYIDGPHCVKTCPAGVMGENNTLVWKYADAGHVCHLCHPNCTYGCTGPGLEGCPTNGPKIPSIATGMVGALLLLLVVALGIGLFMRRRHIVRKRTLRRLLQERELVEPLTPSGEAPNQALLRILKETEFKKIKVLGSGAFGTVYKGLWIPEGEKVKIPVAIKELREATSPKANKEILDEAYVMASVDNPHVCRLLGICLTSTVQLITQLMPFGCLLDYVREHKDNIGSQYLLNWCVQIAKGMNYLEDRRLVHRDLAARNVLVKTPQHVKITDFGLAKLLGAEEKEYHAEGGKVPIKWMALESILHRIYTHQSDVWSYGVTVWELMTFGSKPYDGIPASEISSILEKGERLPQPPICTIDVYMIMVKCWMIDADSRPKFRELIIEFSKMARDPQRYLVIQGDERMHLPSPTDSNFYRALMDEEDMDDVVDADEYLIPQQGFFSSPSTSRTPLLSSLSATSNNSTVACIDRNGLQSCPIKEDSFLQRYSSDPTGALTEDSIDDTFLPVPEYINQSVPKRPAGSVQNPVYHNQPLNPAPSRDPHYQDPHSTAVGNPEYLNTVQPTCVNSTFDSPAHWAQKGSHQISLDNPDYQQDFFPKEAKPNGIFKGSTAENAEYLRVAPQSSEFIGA
T6 sequence (O14757 whole entry): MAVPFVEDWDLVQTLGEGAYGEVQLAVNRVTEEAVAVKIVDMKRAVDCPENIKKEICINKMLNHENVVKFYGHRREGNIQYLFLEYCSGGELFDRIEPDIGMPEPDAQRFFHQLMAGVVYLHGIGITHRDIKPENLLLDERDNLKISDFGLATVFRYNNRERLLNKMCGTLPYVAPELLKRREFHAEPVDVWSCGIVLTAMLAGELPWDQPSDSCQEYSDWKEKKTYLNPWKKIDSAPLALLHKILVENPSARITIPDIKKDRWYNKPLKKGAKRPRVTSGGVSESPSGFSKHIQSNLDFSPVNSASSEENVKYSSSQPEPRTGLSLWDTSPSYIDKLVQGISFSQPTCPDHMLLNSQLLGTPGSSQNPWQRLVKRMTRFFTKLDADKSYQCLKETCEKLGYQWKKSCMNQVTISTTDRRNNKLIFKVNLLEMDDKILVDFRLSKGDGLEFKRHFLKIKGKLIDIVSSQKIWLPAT

- remaining activity at 0.3 µM (NIM1; [1]): 102%
- remaining activity at 0.3 µM (NIM1; [2]): 95.6%
- remaining activity at 0.3 µM (TESK2; [1]): 92.8%
- remaining activity at 0.3 µM (TESK2; [2]): 90.1%
- remaining activity at 0.3 µM (JNK1): 74.7%
- remaining activity at 0.3 µM (CDK2/cyclin A1; [1]): 67.5%
- remaining activity at 0.3 µM (CDK2/cyclin A1; [2]): 63.7%
- remaining activity at 0.3 µM (ASK1/MAP3K5; [1]): 99%
- remaining activity at 0.3 µM (ASK1/MAP3K5; [2]): 98.6%
- remaining activity at 0.3 µM (EGFR; [1]): 97.2%
- remaining activity at 0.3 µM (EGFR; [2]): 96%
- remaining activity at 0.3 µM (CAMK1g; [1]): 99%
- remaining activity at 0.3 µM (CAMK1g; [2]): 97.4%
- remaining activity at 0.3 µM (CAMK4; [1]): 96.9%
- remaining activity at 0.3 µM (CAMK4; [2]): 94.7%
- remaining activity at 0.3 µM (ERK5/MAPK7; [1]): 91.6%
- remaining activity at 0.3 µM (ERK5/MAPK7; [2]): 90.9%
- remaining activity at 0.3 µM (SGK2; [1]): 93.7%
- remaining activity at 0.3 µM (SGK2; [2]): 92.7%
- remaining activity at 0.3 µM (WNK2; [1]): 96.6%
- remaining activity at 0.3 µM (WNK2; [2]): 93.9%
- remaining activity at 0.3 µM (MAPKAPK5/PRAK; [1]): 116%
- remaining activity at 0.3 µM (MAPKAPK5/PRAK; [2]): 107%
- remaining activity at 0.3 µM (ULK2; [1]): 86.5%
- remaining activity at 0.3 µM (ULK2; [2]): 82.4%
- remaining activity at 0.3 µM (Aurora B; [1]): 86.7%
- remaining activity at 0.3 µM (Aurora B; [2]): 83.9%
- remaining activity at 0.3 µM (MLK4): 106%
- remaining activity at 0.3 µM (ROS/ROS1; [1]): 10.1%
- remaining activity at 0.3 µM (ROS/ROS1; [2]): 9.96%
- remaining activity at 0.3 µM (PKCtheta; [1]): 91.3%
- remaining activity at 0.3 µM (PKCtheta; [2]): 90.3%
- remaining activity at 0.3 µM (GRK6; [1]): 86.9%
- remaining activity at 0.3 µM (GRK6; [2]): 83.9%
- remaining activity at 0.3 µM (CHK1; [1]): 104%
- remaining activity at 0.3 µM (CHK1; [2]): 101%
- remaining activity at 0.3 µM (SGK1; [1]): 91.7%
- remaining activity at 0.3 µM (SGK1; [2]): 91%
SMILES: COc1cc(N2CCN(C)CC2)c(C)cc1Nc1ncc(Br)c(Nc2cccnc2N(C)C)n1 [TP-5801]
